Experimental data taken from ChEMBL document CHEMBL2157957, “Strategies to mitigate the bioactivation of 2-anilino-7-aryl-pyrrolo[2,1-f][1,2,4]triazines: identification of orally bioavailable, efficacious ALK inhibitors” (J Med Chem, 2012).
Values belong to the molecule of their own block, whether it stands above or below them.

Columns and labels:
[1] = Oral bioavailability in Sprague-Dawley rat at 5 mg/kg; format: ADME, organism-based; settings: in vivo
[2] = AUC (0 to t) in Sprague-Dawley rat at 5 mg/kg, po; format: ADME, organism-based; design: dose 5 mg/kg, route oral; settings: plasma
[3] = Half life in CD1 mouse liver microsomes at 0.5 uM preincubated for 10 mins before NADPH and UDPGA challenge; format: ADME, Microsome
[4] = Cmax in SCID mouse at 10 mg/kg, po; format: ADME, organism-based; design: dose 10 mg/kg, route oral; settings: in vivo
[5] = test system: Mus musculus; assay: Toxicity in human SUP-M2 cells xenografted SCID mouse assessed as body weight loss at 30 mg/kg, po BID measured 12 days post dose; format: organism-based; design: dose 30 mg/kg, route oral; settings: in vivo, 288 h
[6] = AUC (0 to t) in Sprague-Dawley rat at 1 mg/kg, iv; format: ADME, organism-based; design: dose 1 mg/kg, route intravenous; settings: plasma
[7] = Plasma concentration in human SUP-M2 cells xenografted SCID mouse at 30 mg/kg, po administered as single dose measured 12 hrs post dose; format: ADME, organism-based; design: dose 30 mg/kg, route oral
[8] = Half life in Sprague-Dawley rat liver microsomes at 0.5 uM preincubated for 10 mins before NADPH and UDPGA challenge; format: ADME, Microsome
[9] = test system: Plasma; assay: Ratio of plasma concentration at 12 hrs to plasma concentration at 24 hrs in human SUP-M2 cells xenografted SCID mouse at 30 mg/kg, po administered as single dose; format: ADME, organism-based; design: dose 30 mg/kg, route oral; settings: in vivo
[10] = molecular target: ALK tyrosine kinase receptor (Homo sapiens, UniProt Q9UM73); assay: Inhibition of GST-tagged human ALK cytoplasmic domain (1058-1620) expressed in Sf21 insect cells using GST-tagged human recombinant PLC-gamma/substrate by ELISA
Sequence of ALK tyrosine kinase receptor (Q9UM73 whole entry, the tested form may be a part): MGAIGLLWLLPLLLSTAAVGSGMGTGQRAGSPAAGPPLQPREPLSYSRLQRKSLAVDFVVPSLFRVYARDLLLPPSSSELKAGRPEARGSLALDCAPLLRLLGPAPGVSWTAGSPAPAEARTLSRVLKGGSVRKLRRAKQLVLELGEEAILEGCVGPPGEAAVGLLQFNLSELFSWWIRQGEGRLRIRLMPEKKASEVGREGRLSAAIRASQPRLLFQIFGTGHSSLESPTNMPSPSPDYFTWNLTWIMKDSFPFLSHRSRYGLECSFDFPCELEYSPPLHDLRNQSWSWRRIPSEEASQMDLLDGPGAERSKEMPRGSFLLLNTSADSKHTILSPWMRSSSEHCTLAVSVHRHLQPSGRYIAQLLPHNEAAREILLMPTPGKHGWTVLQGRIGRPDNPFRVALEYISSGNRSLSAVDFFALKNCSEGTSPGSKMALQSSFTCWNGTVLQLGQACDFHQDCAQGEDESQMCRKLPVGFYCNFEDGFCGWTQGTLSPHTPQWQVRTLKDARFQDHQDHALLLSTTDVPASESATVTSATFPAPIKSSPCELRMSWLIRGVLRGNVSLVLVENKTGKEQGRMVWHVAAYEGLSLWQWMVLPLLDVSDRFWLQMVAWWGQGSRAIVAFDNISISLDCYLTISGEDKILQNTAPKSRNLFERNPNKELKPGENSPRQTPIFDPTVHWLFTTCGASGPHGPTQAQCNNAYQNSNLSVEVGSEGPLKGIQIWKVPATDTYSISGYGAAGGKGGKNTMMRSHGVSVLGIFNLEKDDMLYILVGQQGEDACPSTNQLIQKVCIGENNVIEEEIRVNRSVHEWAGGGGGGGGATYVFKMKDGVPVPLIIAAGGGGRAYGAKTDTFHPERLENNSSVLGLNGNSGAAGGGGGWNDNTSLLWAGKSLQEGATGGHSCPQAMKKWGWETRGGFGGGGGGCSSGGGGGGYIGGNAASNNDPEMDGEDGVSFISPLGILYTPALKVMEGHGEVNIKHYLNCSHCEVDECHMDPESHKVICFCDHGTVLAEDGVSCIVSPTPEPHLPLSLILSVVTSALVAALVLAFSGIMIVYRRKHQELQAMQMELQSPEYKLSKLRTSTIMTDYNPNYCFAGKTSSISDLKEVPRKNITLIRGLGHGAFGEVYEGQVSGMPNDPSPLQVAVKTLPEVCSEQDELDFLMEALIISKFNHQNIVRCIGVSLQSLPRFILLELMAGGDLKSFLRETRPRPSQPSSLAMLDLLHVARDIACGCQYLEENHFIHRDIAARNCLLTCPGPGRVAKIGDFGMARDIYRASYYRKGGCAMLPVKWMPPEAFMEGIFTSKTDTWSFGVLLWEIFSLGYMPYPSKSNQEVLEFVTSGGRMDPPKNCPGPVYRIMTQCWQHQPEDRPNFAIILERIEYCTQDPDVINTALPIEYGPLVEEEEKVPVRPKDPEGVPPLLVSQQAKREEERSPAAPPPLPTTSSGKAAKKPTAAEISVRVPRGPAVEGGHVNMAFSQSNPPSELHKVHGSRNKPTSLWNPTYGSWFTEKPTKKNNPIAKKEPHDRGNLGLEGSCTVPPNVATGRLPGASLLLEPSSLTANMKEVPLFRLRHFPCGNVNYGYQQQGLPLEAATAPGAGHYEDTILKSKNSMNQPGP

[11] = Oral bioavailability in SCID mouse at 10 mg/kg; format: ADME, organism-based; settings: in vivo
[12] = AUC (0 to t) in SCID mouse at 10 mg/kg, po; format: ADME, organism-based; design: dose 10 mg/kg, route oral; settings: plasma
[13] = test system: Mus musculus; assay: Toxicity in human SUP-M2 cells xenografted SCID mouse assessed as incidence of overt toxicity at 55 mg/kg, po BID measured 12 days post dose; format: organism-based; design: dose 55 mg/kg, route oral; settings: in vivo, 288 h
[14] = Half life in monkey liver microsomes at 0.5 uM preincubated for 10 mins before NADPH and UDPGA challenge; format: ADME, Macaca mulatta, Microsome; settings: rhesus monkey
[15] = Clearance in SCID mouse at 1 mg/kg, iv; format: ADME, organism-based; design: dose 1 mg/kg, route intravenous; settings: in vivo
[16] = Volume of distribution in Sprague-Dawley rat at 1 mg/kg, iv; format: ADME, organism-based; design: dose 1 mg/kg, route intravenous; settings: in vivo
[17] = test system: Mus musculus; assay: Toxicity in human SUP-M2 cells xenografted SCID mouse assessed as incidence of overt toxicity at 30 mg/kg, po BID measured 12 days post dose; format: organism-based; design: dose 30 mg/kg, route oral; settings: in vivo, 288 h
[18] = Tmax in Sprague-Dawley rat at 5 mg/kg, po; format: ADME, organism-based; design: dose 5 mg/kg, route oral; settings: in vivo
[19] = Half life in Sprague-Dawley rat at 1 mg/kg, iv; format: ADME, organism-based; design: dose 1 mg/kg, route intravenous; settings: in vivo
[20] = Ratio of tumor concentration at 12 hrs to plasma concentration at 12 hrs in human SUP-M2 cells xenografted SCID mouse at 30 mg/kg, po administered as single dose; format: ADME, organism-based; design: dose 30 mg/kg, route oral
[21] = Cmax in Sprague-Dawley rat at 5 mg/kg, po; format: ADME, organism-based; design: dose 5 mg/kg, route oral; settings: in vivo
[22] = Tmax in SCID mouse at 10 mg/kg, po; format: ADME, organism-based; design: dose 10 mg/kg, route oral; settings: in vivo
[23] = test system: Mus musculus; assay: Inhibition of NPM-ALK phosphorylation in human SUP-M2 cells xenografted in SCID mouse at 30 mg/kg, po administered as single dose measured 12 hrs post dose; format: functional; settings: SUP-M2, 12 h
[24] = Volume of distribution in SCID mouse at 1 mg/kg, iv; format: ADME, organism-based; design: dose 1 mg/kg, route intravenous; settings: in vivo
[25] = Clearance in Sprague-Dawley rat at 1 mg/kg, iv; format: ADME, organism-based; design: dose 1 mg/kg, route intravenous; settings: in vivo
[26] = Half life in SCID mouse at 1 mg/kg, iv; format: ADME, organism-based; design: dose 1 mg/kg, route intravenous; settings: in vivo
[27] = Half life in human liver microsomes at 0.5 uM preincubated for 10 mins before NADPH and UDPGA challenge; format: ADME, Microsome
[28] = molecular target: NPM/ALK (Nucleophosmin/ALK tyrosine kinase receptor) (Homo sapiens, UniProt Q9UM73); assay: Inhibition of human NPM-ALK phosphorylation using 4-MeUP substrate by cell based assay
Sequence of NPM/ALK (Nucleophosmin/ALK tyrosine kinase receptor) (Q9UM73 whole entry): as the sequence (Q9UM73 whole entry, the tested form may be a part) above
Sequence of NPM/ALK (Nucleophosmin/ALK tyrosine kinase receptor) (P06748 whole entry, further chain): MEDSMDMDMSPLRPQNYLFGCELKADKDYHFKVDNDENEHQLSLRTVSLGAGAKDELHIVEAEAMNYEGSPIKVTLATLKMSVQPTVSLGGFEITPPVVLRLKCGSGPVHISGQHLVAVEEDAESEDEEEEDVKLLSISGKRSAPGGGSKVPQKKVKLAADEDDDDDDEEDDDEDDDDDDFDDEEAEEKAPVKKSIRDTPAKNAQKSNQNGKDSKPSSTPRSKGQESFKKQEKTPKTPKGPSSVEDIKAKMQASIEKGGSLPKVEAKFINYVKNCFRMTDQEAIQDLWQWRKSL

[29] = molecular target: Insulin receptor (Homo sapiens, UniProt P06213); assay: Inhibition of IR
Sequence of Insulin receptor (P06213 28-758 limits assumed): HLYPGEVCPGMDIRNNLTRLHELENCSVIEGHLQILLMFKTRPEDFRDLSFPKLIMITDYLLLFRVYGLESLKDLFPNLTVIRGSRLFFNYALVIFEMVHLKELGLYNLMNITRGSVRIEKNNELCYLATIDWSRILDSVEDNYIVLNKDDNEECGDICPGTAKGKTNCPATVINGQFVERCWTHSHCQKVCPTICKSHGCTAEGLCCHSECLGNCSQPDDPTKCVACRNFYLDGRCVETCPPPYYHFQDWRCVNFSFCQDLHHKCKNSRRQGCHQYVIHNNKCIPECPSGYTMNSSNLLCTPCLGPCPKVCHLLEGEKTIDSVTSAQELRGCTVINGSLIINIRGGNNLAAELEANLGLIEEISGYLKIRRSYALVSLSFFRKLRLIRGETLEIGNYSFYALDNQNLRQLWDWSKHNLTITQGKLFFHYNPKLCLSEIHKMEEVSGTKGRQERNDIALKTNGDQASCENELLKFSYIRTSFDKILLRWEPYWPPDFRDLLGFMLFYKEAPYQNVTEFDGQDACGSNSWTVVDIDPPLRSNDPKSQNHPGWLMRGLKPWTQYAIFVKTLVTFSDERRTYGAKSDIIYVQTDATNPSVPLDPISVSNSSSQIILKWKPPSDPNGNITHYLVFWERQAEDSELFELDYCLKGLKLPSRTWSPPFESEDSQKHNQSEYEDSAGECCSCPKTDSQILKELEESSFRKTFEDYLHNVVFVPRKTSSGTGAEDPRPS
Sequence of Insulin receptor (P06213 763-1382 limits assumed): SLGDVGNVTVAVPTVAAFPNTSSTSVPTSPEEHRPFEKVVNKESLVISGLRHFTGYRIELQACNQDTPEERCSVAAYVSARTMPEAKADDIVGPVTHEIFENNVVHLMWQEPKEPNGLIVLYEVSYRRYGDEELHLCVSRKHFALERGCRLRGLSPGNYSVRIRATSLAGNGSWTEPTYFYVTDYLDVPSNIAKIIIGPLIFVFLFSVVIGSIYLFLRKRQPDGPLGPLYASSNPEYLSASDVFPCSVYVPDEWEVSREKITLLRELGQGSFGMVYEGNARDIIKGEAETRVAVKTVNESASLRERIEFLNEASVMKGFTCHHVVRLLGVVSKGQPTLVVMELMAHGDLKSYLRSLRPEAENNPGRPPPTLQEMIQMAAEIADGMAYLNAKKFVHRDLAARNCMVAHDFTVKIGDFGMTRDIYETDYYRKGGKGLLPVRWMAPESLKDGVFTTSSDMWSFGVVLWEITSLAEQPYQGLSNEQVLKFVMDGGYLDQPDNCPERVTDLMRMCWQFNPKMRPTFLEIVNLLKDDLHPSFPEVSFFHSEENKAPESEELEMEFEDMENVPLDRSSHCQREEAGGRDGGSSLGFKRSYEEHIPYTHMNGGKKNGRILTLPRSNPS

[30] = AUC (0 to t) in SCID mouse at 1 mg/kg, iv; format: ADME, organism-based; design: dose 1 mg/kg, route intravenous; settings: plasma
[31] = test system: Mus musculus; assay: Toxicity in human SUP-M2 cells xenografted SCID mouse assessed as body weight loss at 55 mg/kg, po BID measured 12 days post dose; format: organism-based; design: dose 55 mg/kg, route oral; settings: in vivo, 288 h
[32] = Half life in SCID mouse at 10 mg/kg, po; format: ADME, organism-based; design: dose 10 mg/kg, route oral; settings: in vivo

bioavailability [1]: 43%
AUC(0-t) [2]: 1760 ng·h/mL
half-life at 0.5 µM [3]: > 40 min
Cmax [4]: 3470 ng/mL
AUC(0-t) [6]: 1110 ng·h/mL
concentration at 12 h [7]: 6 µM
half-life at 0.5 µM [8]: > 40 min
Ratio [9]: 7
IC50 [10]: 6 nM
bioavailability [11]: 56%
AUC(0-t) [12]: 42500 ng·h/mL
half-life at 0.5 µM [14]: > 40 min
clearance [15]: 2 mL/min/kg
Vd [16]: 3.5 L/kg
Tmax [18]: 6 h
half-life [19]: 204 min
Kp at 12 h [20]: 2
Cmax [21]: 392 ng/mL
Tmax [22]: 2 h
Vd [24]: 1.1 L/kg
clearance [25]: 12 mL/min/kg
half-life [26]: 360 min
half-life at 0.5 µM [27]: > 40 min
IC50 [28]: 100 nM
IC50 [29]: 222 nM
AUC(0-t) [30]: 7550 ng·h/mL
half-life [32]: 264 min
Compound: COc1cc(C2CCN(CC(N)=O)CC2)ccc1Nc1ncc2ccc(-c3ccccc3OC)n2n1
Activity [5]: Non-toxic
Activity [13]: Non-toxic
Activity [17]: Non-toxic
inhibition in vivo at 30 mg/kg [23]: 80%
Activity [31]: Non-toxic

IC50 [10]: 10 nM
half-life at 0.5 µM [14]: < 12 min
half-life at 0.5 µM [27]: < 12 min
IC50 [28]: 100 nM
IC50 [29]: 161 nM
Compound: CNC(=O)CN1CCC(c2ccc(Nc3ncc4ccc(-c5ccccc5OC)n4n3)c(OC)c2)CC1

IC50 [10]: 12 nM
IC50 [28]: 500 nM
IC50 [29]: 2970 nM
Compound: COc1ccc(-c2ccc3cnc(Nc4ccc(C5CCN(CC(N)=O)CC5)cc4OC)nn23)c(OC)c1

IC50 [10]: 19 nM
IC50 [28]: 250 nM
IC50 [29]: 747 nM
Compound: COc1cc(C2CCN(CC(N)=O)CC2)ccc1Nc1ncc2ccc(-c3ccccc3C#N)n2n1

IC50 [10]: 1060 nM
IC50 [29]: > 10000 nM
Compound: COc1cc(C2CCN(CC(N)=O)CC2)ccc1Nc1ncc2ccc(-c3ncccc3OC)n2n1

IC50 [10]: 9 nM
IC50 [28]: 150 nM
IC50 [29]: 410 nM
Compound: COc1cc(C2CCN(CC(N)=O)CC2)ccc1Nc1ncc2ccc(-c3ccncc3OC)n2n1

half-life at 0.5 µM [3]: 29 min
half-life at 0.5 µM [8]: < 5 min
IC50 [10]: 15 nM
half-life at 0.5 µM [14]: < 5 min
half-life at 0.5 µM [27]: < 5 min
IC50 [28]: 80 nM
IC50 [29]: 552 nM
Compound: COc1cc(C2CCN(CC(N)=O)CC2)ccc1Nc1ncc2ccc(-c3ccccc3N(C)S(C)(=O)=O)n2n1

half-life at 0.5 µM [3]: < 5 min
half-life at 0.5 µM [8]: < 5 min
IC50 [10]: 11 nM
half-life at 0.5 µM [14]: < 5 min
half-life at 0.5 µM [27]: < 5 min
Compound: COc1cc(C2CCN(CC(N)=O)CC2)ccc1Nc1ncc2c(O)cc(-c3ccccc3N(C)S(C)(=O)=O)n2n1

bioavailability [1]: 24%
half-life at 0.5 µM [3]: > 40 min
half-life at 0.5 µM [8]: 31 min
IC50 [10]: 6 nM
half-life at 0.5 µM [14]: 6 min
half-life [19]: > 120 min
clearance [25]: ≤ 4 mL/min/kg
half-life at 0.5 µM [27]: 18 min
IC50 [28]: 70 nM
Compound: COc1cc(C2CCN(CC(N)=O)CC2)ccc1Nc1ncc2c(C)cc(-c3ccccc3N(C)S(C)(=O)=O)n2n1
inhibition in vivo at 30 mg/kg [23]: < 75%

bioavailability [1]: 41%
half-life at 0.5 µM [3]: > 40 min
half-life at 0.5 µM [8]: > 40 min
IC50 [10]: 4.7 nM
half-life at 0.5 µM [14]: 15 min
half-life [19]: > 120 min
clearance [25]: ≤ 4 mL/min/kg
half-life at 0.5 µM [27]: 37 min
IC50 [28]: 70 nM
Compound: COc1cc(C2CCN(CC(N)=O)CC2)ccc1Nc1ncc2c(Cl)cc(-c3ccccc3N(C)S(C)(=O)=O)n2n1
inhibition in vivo at 30 mg/kg [23]: < 75%

IC50 [10]: 56 nM
Compound: COc1c(Nc2ncc3ccc(-c4ccccc4N(C)S(C)(=O)=O)n3n2)ccc(N2CCN(C[C@H](C)O)CC2)c1F

IC50 [10]: 14 nM
IC50 [28]: 200 nM
Compound: COc1cc(N2CCN(C[C@H](C)O)CC2)c(F)cc1Nc1ncc2ccc(-c3ccccc3N(C)S(C)(=O)=O)n2n1
